Experiments:
rats = conditions: cited from earlier work
wistar rats = test: Dexamethasone-mediated reduction of food intake in rats; type: in vivo, rat
Method: Six to eight week old wistar rats (n=6 per group) were housed separately and treated as indicated in the example. Daily food intake was measured and plotted. […] Data represents mean+/−SEM.
Blood was collected from cardiac punctures.
Food intake was measured every alternate day by giving measured food to each cage in evening (5.00 PM) and collection of residual food in next morning (9.00 AM) and measuring it. The residual food was subtracted from the food given and plotted.

GAL-PPARα = test: PPARα activation assay (GAL-PPARα / GAL4-Luc reporter) in HEK293 cells expressing endogenous AdipoR1; type: cell-based, human
Method: A. ULMA enhances PPARα ligand activity; HEK293 cells were seeded on to 24 well plates and after 24 h, transfected with 100 ng of GAL-PPARα and 100 ng GAL4-Luc along with 100 ng eGFPC1 (Clontech) plasmids using lipofectamine LTX (Invitrogen) according to manufacturer's instructions. 24 h after transfection, cells were treated with or without 100 pM GW-7647 alone or in combination with 100 nM ULMA or 1 μg/ml globular adiponectin (gAd) for 6 h. Following which, the cells were lysed and GFP fluorescence and firefly luciferase activities were measured. Luciferase activity was normalized with GFP fluorescence and plotted as fold activity over vehicle (0.1% DMSO) treated control. Data shown in mean±SEM of three independent experiments performed in duplicates. *p<0.05 as determined by two tailed unpaired student's t-test.
The potential of ULMA to activate adiponectin receptor signaling was evaluated using a PPARα activation assay. […] 24 hours following plating, these cells were transfected with 100 ng of GAL-PPARα (PPARα cDNA fused with GAL4 DNA binding domain) and 100 ng GAL4 upstream activation sequence driven luciferase (GAL4-Luc) reporter gene that is capable of binding to any protein fused to GAL4-DNA binding domain (in this case GAL-PPARα) and 100 ng Green fluorescence expressing plasmid (GFP) that was used as an internal control, using lipofectamine LTX transfection reagent (Invitrogen) according to manufacturers' instructions. […] The cells were then lysed and luciferase activity was measured in a Promega GloMax luminometer using steady Glo luciferase assay kit (Promega) according to manufacturers' instructions; and GFP fluorescence was measured in a fluorimeter (Polarstar Galaxy, BMG Labtech). […]

AdipoR1 = target: T1, AdipoR1 (Homo sapiens, UniProt Q96A54); test: Radio-ligand saturation binding assay with 125I-ULMA, CHO cells transfected with AdipoR1
T1 construct: expressed in transfected cells; host or cells: Chinese Hamster Ovary cells (ECACC 85050302), transient transfection with Lipofectamine LTX
T1 sequence (Q96A54 1-375): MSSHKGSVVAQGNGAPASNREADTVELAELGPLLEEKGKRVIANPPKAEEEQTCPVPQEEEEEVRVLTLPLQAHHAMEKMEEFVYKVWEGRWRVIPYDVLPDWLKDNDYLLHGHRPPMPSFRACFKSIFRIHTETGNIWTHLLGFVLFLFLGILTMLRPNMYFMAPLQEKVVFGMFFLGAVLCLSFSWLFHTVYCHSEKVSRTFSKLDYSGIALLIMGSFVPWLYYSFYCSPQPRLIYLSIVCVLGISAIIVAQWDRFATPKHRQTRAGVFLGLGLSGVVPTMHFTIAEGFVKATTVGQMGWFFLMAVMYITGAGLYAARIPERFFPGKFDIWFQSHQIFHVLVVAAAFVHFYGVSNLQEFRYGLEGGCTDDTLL
Method: D. CHO cells transfected with empty vector or AdipoR1 or R2 expression vectors were incubated with various concentrations of ^125I-ULMA for 2 h at 4° C. Following washes, cells were lysed and count per minute was analyzed in a gamma counter. 200 fold molar excess of unlabeled ULMA was used for each concentration of radiolabeled ULMA for determining nonspecific activity. Count per minutes were normalized with total cellular protein content followed by further normalization with non-specific activity and plotted. Data is mean±SEM from three experiments performed in triplicates.
Further validation of AdipoR-ULMA interaction and its quantitation was done using a radio-ligand saturation binding assay using ^125I-ULMA. ULMA was first radiolabeled using chloramines-T method. 10 μl of ^125I (20 MBq; BARC, Mumbai, India) was added to 100 μg GTDF in 5% acetic acid/methanol, then chloramine-T (Sigma, 4 μg in MilliQ H2O) was added, and the mixture was allowed to react at room temperature (24° C.) for 5 min. […] was used for protein estimation using standard Bradford assay and rest of the lysate was used for measuring radioactivity in a gamma-counter (Cole Palmer). The count per minute was normalized with protein concentration and was further normalized with non specific binding, which was determined for every concentration of ^125I-ULMA, using 200 fold molar excess of unlabeled ULMA.

O=C1c2c(cc(O)c([C@@H]3O[C@H](CO)[C@@H](O)[C@H](O)[C@H]3O)c2O)O[C@@H](c2ccc(O)c(O)c2)[C@@H]1O [ULMA, (2S,3S)-(+)-3′,4′,5,7-tetrahydroxydihydroflavonol-6-C-β-D-glucopyranoside]
effect on ovariectomy-induced osteoporosis (rats): mitigated ovariectomy-induced osteoporosis | food intake in vehicle treated (ethanol: IP) rats (wistar rats; 5 mg/kg ULMA oral alone): did not affect food intake | Dex-caused loss in food intake (wistar rats; Dex + 5 mg/kg ULMA oral): alleviated it | potency in enhancing PPARα ligand activity, comparison (GAL-PPARα; 100 nM ULMA vs 1 μg/ml globular adiponectin, with 100 pM GW-7647): more potent than globular adiponectin | enhancement of GW-7647 induced luciferase activity (PPARα ligand activity) (GAL-PPARα; co-treatment with 100 pM GW-7647, 100 nM ULMA or 1 μg/ml globular adiponectin, 6 hours): further enhanced | maximum binding (BMAX) (AdipoR1): 1410 fmol/mg of protein | Kd (AdipoR1; 2 hours, ice cold, read-out: dissociation constant (Kd)): 4.9 nM

From patent US20160193240A1, “Ulmoside-A: Useful For Prevention Or Cure Of Metabolic Diseases” (COUNCIL OF SCIENTIFIC & INDUSTRIAL RESEARCH, priority 2013, published 2016)
